Article PMC10584170, “Machine learning-based phenotypic imaging to characterise the targetable biology of Plasmodium falciparum male gametocytes for the development of transmission-blocking antimalarials” (PLOS Pathogens, 2023)

Tests used:
[1] = tested on: P. falciparum male gametocytes; assay: P. falciparum Dual Gamete Formation Assay (PfDGFA), male readout (exflagellation); assay type: cell-based, Plasmodium falciparum NF54; conditions: for Average inhibition male (%): average of replicates; for % inhibition male (individual replicates) R1: replicate R1; for % inhibition male (individual replicates) R3: replicate R3; for % inhibition male (individual replicates) R4: replicate R4; for Activity: hit = >50% inhibition in male or female readout in at least 3 replicates, 0 = no class assigned
Outline: (§1)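 Day-14 NF54 gametocytes were incubated with compound for 24 h at 37°C under 1% O2/3% CO2/96% N2. Gametogenesis was triggered with ookinete medium (0.1 μM xanthurenic acid) plus Cy3-anti-Pfs25, and exflagellation was imaged by brightfield after cooling to 4°C then 28°C. Females were imaged by Pfs25 fluorescence 24 h later at 28°C.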

[2] = tested on: P. falciparum female gametocytes; assay: P. falciparum Dual Gamete Formation Assay (PfDGFA), female readout (Pfs25-positive female gametes); assay type: cell-based, Plasmodium falciparum NF54; conditions: for Average inhibition female (%): average of replicates; for % inhibition female (individual replicates) R1: replicate R1; for % inhibition female (individual replicates) R3: replicate R3; for % inhibition female (individual replicates) R4: replicate R4
Outline: as §1

[3] = PfDGFA at 2µM, 24h preincubation with gametocytes
[4] = number of replicates with >50% inhibition in the male readout, 2µM
[5] = number of replicates with >50% inhibition in the female readout, 2µM
[6] = 2µM, 24h preincubation with gametocytes prior to induction of gametogenesis
[7] = 2µM, 24h preincubation, number of replicates with >50% inhibition in the male readout
[8] = 2µM, 24h preincubation, number of replicates with >50% inhibition in the female readout
[9] = 2µM, 24h preincubation, hits selected on >50% inhibition in the male readout across replicates
[10] = PfDGFA at 2µM, 24h preincubation
[11] = 2µM, 24h preincubation, hits selected on >50% inhibition in the female readout across replicates
[12] = PfDGFA at 2µM, 24h preincubation with gametocytes prior to induction of gametogenesis

Structure (SMILES) | Average inhibition male (%) [1, 6] [%] | % inhibition male (individual replicates) R1 [1, 6] [%] | % inhibition male (individual replicates) R3 [1, 6] [%] | % inhibition male (individual replicates) R4 [1, 6] [%] | HitlevelM [1, 7] | Average inhibition female (%) [2, 6] [%] | % inhibition female (individual replicates) R1 [2, 6] [%] | % inhibition female (individual replicates) R3 [2, 6] [%] | % inhibition female (individual replicates) R4 [2, 6] [%] | HitlevelF [2, 8] | further results
CC(=O)c1ccc2nc[nH]c(=O)c2c1 [TCMDC-138172] |  |  |  |  |  |  |  |  |  |  | Average inhibition male (%) [1, 3]: 79.0%; % inhibition male (individual replicates) R1 [1, 3]: 88.9%; % inhibition male (individual replicates) R3 [1, 3]: 57.7%; % inhibition male (individual replicates) R4 [1, 3]: 96.3%; HitlevelM [1, 4]: 4; Average inhibition female (%) [2, 3]: 55.1%; % inhibition female (individual replicates) R1 [2, 3]: 62.7%; % inhibition female (individual replicates) R3 [2, 3]: 39.9%; % inhibition female (individual replicates) R4 [2, 3]: 66.0%; HitlevelF [2, 5]: 3
COc1cc2nc(N3CCN(C(=O)c4c(Cl)nsc4-c4ccccc4Cl)CC3)nc(N)c2cc1OC.O=C(O)C(F)(F)F [TCMDC-138186] | 36.4 | 33.1 | -9.1 | 66.9 | 2 | 23.5 | 19.4 | 2.1 | 50.6 | 1 | 
Cl.Cn1ccc(-c2cccc(Nc3ccnc4cc(-c5nccs5)ccc34)c2)n1 [TCMDC-138336] | 33.2 | 36.9 |  | 5.3 | 1 | 19.1 | 19.3 | 21.6 | 9.3 | 0 | 
CN(C)CCNCc1ccc(-c2ccc3c(Nc4ccc(Oc5ccccc5)cc4)ccnc3c2)o1 [TCMDC-138399] |  |  |  |  |  |  |  |  |  |  | Average inhibition male (%) [1, 3]: 74.5%; % inhibition male (individual replicates) R1 [1, 3]: 82.1%; % inhibition male (individual replicates) R3 [1, 3]: 51.0%; % inhibition male (individual replicates) R4 [1, 3]: 85.6%; HitlevelM [1, 4]: 4; Average inhibition female (%) [2, 3]: 26.2%; % inhibition female (individual replicates) R1 [2, 3]: 29.8%; % inhibition female (individual replicates) R3 [2, 3]: 23.6%; % inhibition female (individual replicates) R4 [2, 3]: 16.9%; HitlevelF [2, 5]: 0
CN1CCN(Cc2nc(-c3ccc4c(Nc5ccc(Oc6ccccc6)cc5)ccnc4c3)cs2)CC1 [TCMDC-138409] | 49.4 | 33.1 | 19.5 | 56.9 |  | 17.5 | 9.4 | 19.5 | 18.6 |  | HitlevelM [1, 9]: 2; Activity [1, 10]: 0; HitlevelF [2, 11]: 0
CN1CCN(Cc2nc(-c3ccc4c(Nc5ccc(F)c(O)c5)ccnc4c3)cs2)CC1 [TCMDC-138439] | 3.8 | -1.6 | 1.0 | 20.9 |  | 3.7 | 13.1 | -10.3 | 4.9 |  | HitlevelM [1, 9]: 0; Activity [1, 10]: 0; HitlevelF [2, 11]: 0
CS(=O)(=O)CCNCc1ccc(-c2ccc3c(Nc4ccc(Cl)cc4F)ccnc3c2)o1 [TCMDC-138445] |  |  |  |  |  |  |  |  |  |  | % inhibition male (individual replicates) R1 [1, 12]: -15.4%; % inhibition male (individual replicates) R3 [1, 12]: 14.3%; % inhibition male (individual replicates) R4 [1, 12]: -10.6%; Average inhibition male (%) [1, 10]: -2.9%; % inhibition female (individual replicates) R1 [2, 12]: 4.7%; % inhibition female (individual replicates) R3 [2, 12]: -15.0%; % inhibition female (individual replicates) R4 [2, 12]: 12.7%; Average inhibition female (%) [2, 10]: -1.7%
CN(C)CCN(C)Cc1ccc(-c2ccc3c(Nc4ccc(F)cc4Cl)ccnc3c2)o1 [TCMDC-138447] | 33.6 | 23.0 | -2.6 | 53.6 | 2 | 19.6 | 22.4 | -11.7 | 48.1 | 0 | 
c1ccc(Oc2ccc(Nc3ccnc4cc(-c5cccc(CNCCN6CCOCC6)c5)ccc34)cc2)cc1 [TCMDC-138474] | 19.3 | 25.4 | -12.1 | 25.6 | 0 | 29.1 | 38.4 | 13.4 | 18.2 | 0 | 
